Patent publication US20250360134A1, “6-6 OR 5-6 FUSED BICYCLIC COMPOUNDS COMPRISING A PYRI(MI)DINE RING USEFUL IN THE|TREATMENT OF INFECTIOUS DISEASES” (INSTITUT NATIONAL DE LA SANTE ET DE LA RECHERCHE MEDICALE …, priority 2020, published 2025)
Counter-ions that a name gives are not always drawn. Like-named read-outs stand apart in the source and are kept apart here.

Assays:
[1] = tested on: human telomeric sequence F21T; assay: FRET-melting, F21T; conditions: K+ condition, 2 μM compound, 0.2 μM oligonucleotide
[2] = Cytotoxicity evaluation, MTT; type: cell-based, human; conditions: HepG2 cells (hepatocarcinoma-derived, ATCC HB-8065); human HepG2 cells, 72 hours, MTT
Protocol: The aim of this assay was to evaluate the impact of metabolic activation of the tested compounds on cell viability.
A cytotoxicity evaluation was performed using the method reported in Emami S A et al., Iran J Basic Med Sci 2012; 15:807-11 to determine the cytotoxic concentrations 50% (CC50) and using doxorubicin as a cytotoxic reference compound. These assays were performed in human HepG2 cells. HepG2 cells were purchased from ATCC (ref HB-8065). These cells are a commonly used human hepatocarcinoma-derived cell line that has characteristics similar to those of primary hepatocytes. These cells express many hepatocyte-specific metabolic enzymes, thus enabling the cytotoxicity of tested product metabolites to be evaluated. Briefly, cells in 100 μl of complete RPMI medium [RPMI supplemented with 10% FCS, 1% 1-glutamine (200 mM), penicillin (100 U/ml), and streptomycin (100 μg/ml)] were inoculated into each well of 96-well plates and incubated at 37° C. in a humidified chamber in 6% CO2. After 24 hours, 100 μl of medium with test compound at various concentrations dissolved in DMSO (final concentration less than 0.5% v/v) was added, and the plates were incubated for 72 hours at 37° C. Duplicate assays were performed for each sample. Each well was microscopically examined for precipitate formation before the medium was aspirated from the wells. After aspiration, 100 μl of MTT solution (0.5 mg/ml in medium without FCS) were then added to each well. Cells were incubated for 2 hours at 37° C. MTT solution was removed, and DMSO (100 μl) was added to dissolve the resulting blue formazan crystals. Plates were shaken vigorously (300 rpm) for 5 min. The absorbance was measured at 570 nm with 630 nm as reference wavelength in a BIO-TEK ELx808 Absorbance Microplate Reader. DMSO was used as blank and doxorubicin (Sigma-Aldrich) as positive control. Cell viability was calculated as percentage of control (cells incubated without compound).

[3] = tested on: Plasmodium telomeric sequence FPf8T; assay: FRET-melting, FPf8T; conditions: K+ condition, 2 μM compound, 0.2 μM oligonucleotide
[4] = tested on: Plasmodium falciparum W2; assay: In vitro antiplasmodial activity, SYBR Green I, strain W2; conditions: Plasmodium falciparum, W2, 48 h, read-out: IC50 Plasmodium falciparum W2, chloroquine-resistant strain W2, 48-hour incubation
Protocol: (§1) The in vitro antiplasmodial activities were tested over concentrations ranging from 39 to 40 μm against culture-adapted Plasmodium falciparum: reference strains 3D7 and W2. […] The parasites were cultivated in RPMI medium (Sigma-Aldrich, Lyon, France) supplemented with 0.5% Albumax I (Life Technologies Corporation, Paisley, UK), hypoxanthine (Sigma-Aldrich), and gentamicin (Sigma-Aldrich) with human erythrocytes and were incubated at 37° C. in a candle jar, as described in Desjardins R E et al., Antimicrob Agents Chemother, 1979; 16:710-18.
(§2) The P. falciparum drug susceptibility test was carried out in 96-well flat bottom sterile plates in a final volume of 250 μL. After a 48-hour incubation with the drugs, quantities of DNA in treated and control cultures of parasites in human erythrocytes were quantified using the SYBR Green I (Sigma-Aldrich) fluorescence-based method as described in Bennett T N et al, Antimicrob Agents Chemother, 2004; 48:1807-10. Briefly, after incubation, plates were frozen at −20° C. until use. Plates were then thawed for 2 hours at room temperature, and 100 μL of each homogenized culture was transferred to a well of a 96-well flat bottom sterile black plate (Nunc, Inc., Rochester, NY) that contained 100 μL of the SYBR Green I lysis buffer (2×SYBR Green, 20 mM Tris base pH 7.5, 5 mM EDTA, 0.008% w/v saponin, 0.08% w/v Triton X-100). […] Plates were incubated for 1 hour at room temperature and then read on a fluorescence plate reader (Tecan, Grödig, Austria) using excitation and emission wavelengths of 485 and 535 nm, respectively. Concentrations inhibiting 50% of the parasite's growth (half maximal inhibitory concentration or IC50 values) were then calculated from the obtained experimental results by non-linear regression analysis of data from dose-response curves, using TableCurve 2D version 5.0 software (Systat Software, San Jose, CA). IC50 values are reported as means calculated from three independent experiments, as described in H. Kaddouri et al., Antimicrob.

[5] = tested on: T. brucei brucei AnTat 1.9; assay: In vitro antitrypanosomal activity, Alamar Blue assay; type: cell-based, Trypanosoma brucei brucei; conditions: Trypanosoma brucei, read-out: IC50 T. brucei brucei
Protocol: The effects of the tested compounds on the growth of T. brucei brucei were assessed using an Alamar Blue® assay described in B. Raz et al., Acta Trop. 1997, 68, 139. T. brucei brucei AnTat 1.9 (IMTA, Antwerpen, Belgium) was cultured in MEM with Earle's salts, supplemented according to the protocol disclosed in T. Baltz et al., EMBO J. 1985, 4, 1273, with the following modifications: 0.5 mM mercaptoethanol (Sigma-Aldrich), 1.5 mM 1-cysteine (Sigma-Aldrich), 0.05 mM bathocuproine sulfate (Sigma-Aldrich), and 20% heat-inactivated horse serum (Gibco, France) at 37° C. and 5% CO2. Samples were incubated at an average density of 2000 parasites/well in sterile 96-well plates (Fisher, France) with various concentrations of compounds dissolved in 0.9% NaCl. All doses were tested in duplicate. Appropriate controls treated with solvents 0.9% NaCl or DMSO or with suramin, pentamidine, eflornithine, and fexinidazole (reference drugs purchased from Sigma-Aldrich and Fluorochem, UK) were added to each set of experiments. After a 69-hour incubation at 37° C., 10 μl of the viability marker Alamar Blue (Fisher) was added to each well, and the plates were incubated for 5 hour. The plates were read in a PerkinElmer ENSPIRE (Germany) microplate reader using an excitation wavelength of 530 nm and an emission wavelength of 590 nm. The IC50 was defined as the concentration of drug necessary to inhibit by 50% the activity of T. brucei brucei compared to the control. IC50 values were calculated using a non-linear regression analysis of dose-response curves performed using GraphPad Prism software (USA). IC50 values were calculated from three independent experiments.

[6] = tested on: Plasmodium telomeric sequence FPf1T; assay: FRET-melting, FPf1T; conditions: K+ condition, 2 μM compound, 0.2 μM oligonucleotide
[7] = tested on: human duplex sequence FdxT; assay: FRET-melting, FdxT; conditions: duplex control, K+ condition, 2 μM compound, 0.2 μM oligonucleotide
[8] = tested on: Trypanosoma 9 and 11 chromosomic sequence FTrypBT; assay: FRET-melting, FTrypBT; conditions: K+ condition, 2 μM compound, 0.2 μM oligonucleotide
[9] = tested on: Plasmodium falciparum 3D7; assay: In vitro antiplasmodial activity, SYBR Green I, strain 3D7; conditions: Plasmodium falciparum, 3D7, 48 h, read-out: IC50 Plasmodium falciparum 3D7, chloroquine-sensitive strain 3D7, 48-hour incubation
Protocol: as §1, §2

[10] = tested on: SARS-CoV-2; assay: microbe, parasite or virus in culture; type: cell-based; conditions: Severe acute respiratory syndrome coronavirus 2; A549 cells expressing human ACE2, 72 hours after infection, RT-PCR of the N-gene; read-out: IC50 RTqPCR SARS-CoV-2
[11] = 69-hour incubation, Alamar Blue

CN(C)CCCNCc1ccc(-c2nc(-c3ccc(CNCCCN(C)C)cc3)c3ccn(C)c3n2)cc1 [Compound 8B, 2,4-bis{4-[(3-dimethylaminopropyl)aminomethyl]phenyl}-7-methyl-7H-pyrrolo[2,3-d]pyrimidine oxalate]
FRET-melting values in K+ conditions at 2 μM ΔTm F21T [1]: 10.9 °C
IC50 at 72 h [2]: 16400 nM
FRET-melting values in K+ conditions at 2 μM ΔTm FPf8T [3]: 10.6 °C
IC50 [4]: 4460 ± 600 nM
IC50 ([5]; 69 h): 550 ± 50 nM
FRET-melting values in K+ conditions at 2 μM ΔTm FPf1T [6]: 10.3 °C
FRET-melting values in K+ conditions at 2 μM ΔTm FdxT [7]: −0.2 °C
FRET-melting values in K+ conditions at 2 μM ΔTm FtryBT [8]: 9.4 °C
IC50 [9]: 1950 ± 690 nM

CN(C)CCCNCc1ccc(-c2nc(-c3ccc(CNCCCN(C)C)s3)c3ccn(-c4ccccc4)c3n2)cc1 [Compound 6B, 2-{4-[(3-Dimethylaminopropyl)aminomethyl]phenyl}-4-{5-[(3-dimethylaminopropyl)aminomethyl]thien-2-yl}-7-phenyl-7H-pyrrolo[2,3-d]pyrimidine oxalate]
FRET-melting values in K+ conditions at 2 μM ΔTm F21T [1]: 25.5 °C
IC50 at 72 h [2]: 1740 nM
FRET-melting values in K+ conditions at 2 μM ΔTm FPf8T [3]: 26.6 °C
IC50 [4]: 750 ± 160 nM
IC50 ([5]; 69 h): 140 ± 20 nM
FRET-melting values in K+ conditions at 2 μM ΔTm FPf1T [6]: 26.3 °C
FRET-melting values in K+ conditions at 2 μM ΔTm FdxT [7]: 1.7 °C
FRET-melting values in K+ conditions at 2 μM ΔTm FtryBT [8]: 23.1 °C
IC50 [9]: 1210 ± 180 nM

CN1CCN(CCCNCc2ccc(-c3nc(-c4ccc(CNCCCN5CCN(C)CC5)cc4)c4sccc4n3)cc2)CC1 [Compound 30B, 2,4-Bis{4-[(3-(4-methylpiperazin-1-yl)propyl)aminomethyl]phenyl}thieno[3,2-d]pyrimidine oxalate]
FRET-melting values in K+ conditions at 2 μM ΔTm F21T [1]: 14.5 °C
IC50 at 72 h [2]: 18900 nM
FRET-melting values in K+ conditions at 2 μM ΔTm FPf8T [3]: 15.2 °C
IC50 [4]: 30 nM
IC50 ([5]; 69 h): 750 ± 100 nM
FRET-melting values in K+ conditions at 2 μM ΔTm FPf1T [6]: 14.9 °C
FRET-melting values in K+ conditions at 2 μM ΔTm FdxT [7]: 0.5 °C
FRET-melting values in K+ conditions at 2 μM ΔTm FtryBT [8]: 12.8 °C
IC50 [9]: 10800 ± 2950 nM

CN(C)CCCNCc1ccc(-c2nc(NCCCN(C)C)nc3ccsc23)cc1 [Compound 31B, 2-(3-Dimethylaminopropylamino)-4-{4-[(4-dimethylaminopropyl)aminomethyl]phenyl}thieno[3,2-d]pyrimidine oxalate]
FRET-melting values in K+ conditions at 2 μM ΔTm F21T [1]: 2.0 °C
IC50 at 72 h [2]: > 60000 nM
FRET-melting values in K+ conditions at 2 μM ΔTm FPf8T [3]: 2.9 °C
IC50 [4]: 5690 ± 1210 nM
IC50 [5, 11]: 2580 ± 210 nM
FRET-melting values in K+ conditions at 2 μM ΔTm FPf1T [6]: 1.8 °C
FRET-melting values in K+ conditions at 2 μM ΔTm FdxT [7]: −0.7 °C
FRET-melting values in K+ conditions at 2 μM ΔTm FtryBT [8]: 1.8 °C
IC50 [9]: 40 ± 10 nM

CN(C)CCCCCNCc1ccc(-c2nc(-c3ccccc3)c3ccn(-c4ccc(CNCCCCCN(C)C)cc4)c3n2)cc1 [Compound 35B, oxalate]
FRET-melting values in K+ conditions at 2 μM ΔTm F21T [1]: 27.23 °C
FRET-melting values in K+ conditions at 2 μM ΔTm FPf8T [3]: 33.76 °C
IC50 [4]: 4740 ± 900 nM
FRET-melting values in K+ conditions at 2 μM ΔTm FPf1T [6]: 25.4 °C
FRET-melting values in K+ conditions at 2 μM ΔTm FdxT [7]: 3.49 °C
IC50 [10]: 560 nM
FRET-melting values in K+ conditions at 2 μM ΔTm FtryBT [8]: 21.55 °C
IC50 [9]: 6760 ± 470 nM

CC(C)N(CCCCCNCc1ccc(-c2nc(-c3ccc(CNCCCCCN(C(C)C)C(C)C)cc3)c3ccn(-c4ccccc4)c3n2)cc1)C(C)C [Compound 34B, oxalate]
IC50 [4]: 770 ± 70 nM
IC50 [10]: 170 nM
IC50 [9]: 930 ± 150 nM

CN1CCN(CCCNCc2ccc(-c3nc(-c4ccc(CNCCCN5CCN(C)CC5)cc4)c4ccsc4n3)cc2)CC1 [Compound 27B, 2,4-Bis{4-[(3-(4-methylpiperazin-1-yl)propyl)aminomethyl]phenyl}thieno[2,3-d]pyrimidine oxalate]
FRET-melting values in K+ conditions at 2 μM ΔTm F21T [1]: 9.72 °C
IC50 at 72 h [2]: 11200 nM
FRET-melting values in K+ conditions at 2 μM ΔTm FPf8T [3]: 9.0 °C
IC50 [4]: 4180 ± 30 nM
IC50 ([5]; 69 h): 890 ± 100 nM
FRET-melting values in K+ conditions at 2 μM ΔTm FPf1T [6]: 9.6 °C
FRET-melting values in K+ conditions at 2 μM ΔTm FdxT [7]: −0.10 °C
FRET-melting values in K+ conditions at 2 μM ΔTm FtryBT [8]: 7.9 °C
IC50 [9]: 1950 ± 680 nM

CN(C)CCCNCc1ccc(-c2nc(-c3ccc(CNCCCN(C)C)cc3)c3sccc3n2)cc1 [Compound 29B, 2,4-Bis{4-[(4-dimethylaminopropyl)aminomethyl]phenyl}thieno[3,2-d]pyrimidine oxalate]
FRET-melting values in K+ conditions at 2 μM ΔTm F21T [1]: 19.0 °C
IC50 at 72 h [2]: 3190 nM
FRET-melting values in K+ conditions at 2 μM ΔTm FPf8T [3]: 20.9 °C
IC50 [4]: 2170 ± 410 nM
IC50 [5, 11]: 140 ± 20 nM
FRET-melting values in K+ conditions at 2 μM ΔTm FPf1T [6]: 20.1 °C
FRET-melting values in K+ conditions at 2 μM ΔTm FdxT [7]: 1.8 °C
FRET-melting values in K+ conditions at 2 μM ΔTm FtryBT [8]: 17.1 °C
IC50 [9]: 1370 ± 240 nM

CCN(CC)CCCCNCc1ccc(-c2nc(-c3ccc(CNCCCCN(CC)CC)cc3)c3ccn(-c4ccccc4)c3n2)cc1 [Compound 33B, oxalate]
IC50 [4]: 700 ± 150 nM
IC50 [10]: 550 nM
IC50 [9]: 2470 ± 190 nM

CN(C)CCCNCc1ccc(-c2nc(-c3ccc(CNCCCN(C)C)cc3)c3ccsc3n2)cc1 [Compound 26B, 2,4-Bis{4-[(4-dimethylaminopropyl)aminomethyl]phenyl}thieno[2,3-d]pyrimidine oxalate]
FRET-melting values in K+ conditions at 2 μM ΔTm F21T [1]: 14.1 °C
IC50 at 72 h [2]: 2790 nM
FRET-melting values in K+ conditions at 2 μM ΔTm FPf8T [3]: 13.2 °C
IC50 [4]: 9950 ± 1470 nM
IC50 [5, 11]: 460 ± 40 nM
FRET-melting values in K+ conditions at 2 μM ΔTm FPf1T [6]: 11.2 °C
FRET-melting values in K+ conditions at 2 μM ΔTm FdxT [7]: 0.3 °C
FRET-melting values in K+ conditions at 2 μM ΔTm FtryBT [8]: 8.6 °C
IC50 [9]: 4460 ± 350 nM
